The target in test [1] is T1, Human αvβ3 (Homo sapiens, UniProt P05106+P06756).
T1 construct: purchased Chemicon International Inc., Temecula, Calif
Put plainly: In vitro solid phase purified αvβ3 binding assay (vitronectin/αvβ3). To be noted: isolated human αvβ3, 5 nM vitronectin; read-out: αvβ3 Binding IC50. As to the method:
(§1) In vitro Solid Phase Purified αvβ3 Binding Assay The vitronectin/αvβ3 binding assay methods were derived from Mehta et al. (Biochem J. 1998, 330, 861). Human αvβ3 (Chemicon International Inc., Temecula, Calif.), at a concentration of 1 μg/ml dissolved in Tris buffer (20 mM Tris, 1 mM CaCl2, 1 mM MgCl2, 10 μM MnCl2, 150 mM NaCl), was immobilized on Immulon 96 well plates (Dynex Technologies, Chantilly, Va.) overnight at 4° C. Plates were washed and treated with blocking buffer (3% BSA in Tris buffer) for 2 h at 37 C. Plates were then rinsed 2 times in Tris buffer containing 0.3% BSA and 0.2% Tween20 (polyoxyethylenesorbitan monolaurate). Five minutes prior to the addition of 5 nM vitronectin (Sigma, St. Louis, Mo.), compounds of the invention were added to wells in duplicate. Each plate included c-RGDfV as an internal control. Following a 3 hour incubation at 37° C., plates were washed 5 times in assay buffer. An anti-human vitronectin IgG rabbit polyclonal antibody (Calbiochem, San Diego, Calif.) was added (1:2000) and plates were incubated for 1 hour at room temperature. VectaStain ABC peroxidase kit reagents (Vector Laboratories, Burlingame, Calif.) employing a biotin labeled anti-rabbit IgG, were utilized for detection of bound antibody. Plates were read at 490 nm on a Molecular Devices (Sunnyvale, Calif.) microplate reader. […] The plate was covered and incubated overnight at 4° C. The GPIIb/IIIa solution was discarded and 150 μl of 5% BSA was added and incubated at RT for 1–3 h. The plate was washed extensively with modified Tyrodes buffer. Biotinylated fibrinogen (25 μl/well) at 2× final concentration was added to the wells that contain the test compounds (25 μl/well). The plate was covered and incubated at RT for 2–4 h. Twenty minutes prior to incubation completion, one drop of Reagent A (VectaStain ABC Horse Radish Peroxidase kit, Vector Laboratories, Inc.) and one drop Reagent B were added with mixing to 5 mL modified Tyrodes buffer mix and let stand. The ligand solution was discarded and the plate washed (5×200 μl/well) with modified Tyrodes buffer. Vecta Stain HRP-Biotin-Avidin reagent (50 μl/well, as prepared above) was added and incubated at RT for 15 min. The Vecta Stain solution was discarded and the wells washed (5×200 μl/well) with modified Tyrodes buffer. Developing buffer (10 mL of 50 mM citrate/phosphate buffer @ pH 5.3, 6 mg o-phenylenediamine, 6 μl 30% H2O2; 50 μl/well) was added and incubated at rt for 3–5 min, and then 2 N H2SO4 (50 μl/well) was added. The absorbance was read at 490 nm.

Test [2] concerns the target GPIIb/IIIa (Homo sapiens, UniProt P05106+P08514). Put plainly: In vitro solid phase purified glycoprotein IIb/IIIa binding assay (biotinylated fibrinogen). To be noted: RGD-affinity purified GPIIb/IIIa, biotinylated fibrinogen; read-out: GPIIb/IIIa Binding IC50. On the procedure: as §1

Sequence of GPIIb/IIIa (P08514 32-887 limits assumed): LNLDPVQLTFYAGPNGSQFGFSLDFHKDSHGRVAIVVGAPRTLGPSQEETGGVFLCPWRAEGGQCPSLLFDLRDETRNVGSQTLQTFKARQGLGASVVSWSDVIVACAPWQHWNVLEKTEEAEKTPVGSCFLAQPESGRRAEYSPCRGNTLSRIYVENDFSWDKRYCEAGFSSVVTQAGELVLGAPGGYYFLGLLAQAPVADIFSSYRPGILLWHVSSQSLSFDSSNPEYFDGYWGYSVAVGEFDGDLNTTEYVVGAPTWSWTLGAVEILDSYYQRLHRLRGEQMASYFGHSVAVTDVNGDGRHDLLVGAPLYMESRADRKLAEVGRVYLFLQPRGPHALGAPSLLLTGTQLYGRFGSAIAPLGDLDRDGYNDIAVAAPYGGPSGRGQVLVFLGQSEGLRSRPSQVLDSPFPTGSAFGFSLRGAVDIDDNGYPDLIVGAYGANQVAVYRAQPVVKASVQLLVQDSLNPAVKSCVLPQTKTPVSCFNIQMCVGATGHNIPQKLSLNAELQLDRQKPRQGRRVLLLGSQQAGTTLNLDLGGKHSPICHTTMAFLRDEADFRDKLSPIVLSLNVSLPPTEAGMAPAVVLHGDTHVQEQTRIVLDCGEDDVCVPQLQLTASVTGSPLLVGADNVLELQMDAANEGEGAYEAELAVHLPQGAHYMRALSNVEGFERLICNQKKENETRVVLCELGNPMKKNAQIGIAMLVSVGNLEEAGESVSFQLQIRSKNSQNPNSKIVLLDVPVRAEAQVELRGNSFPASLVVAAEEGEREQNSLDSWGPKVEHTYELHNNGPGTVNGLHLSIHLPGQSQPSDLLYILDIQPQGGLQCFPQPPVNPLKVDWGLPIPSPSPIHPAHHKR
Sequence of GPIIb/IIIa (P08514 891-1039 partner limits assumed): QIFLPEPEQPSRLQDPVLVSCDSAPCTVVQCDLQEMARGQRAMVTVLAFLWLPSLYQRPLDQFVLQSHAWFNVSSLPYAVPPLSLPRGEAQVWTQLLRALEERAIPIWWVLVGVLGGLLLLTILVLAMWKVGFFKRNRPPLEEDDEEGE
Sequence of GPIIb/IIIa (P05106 27-788): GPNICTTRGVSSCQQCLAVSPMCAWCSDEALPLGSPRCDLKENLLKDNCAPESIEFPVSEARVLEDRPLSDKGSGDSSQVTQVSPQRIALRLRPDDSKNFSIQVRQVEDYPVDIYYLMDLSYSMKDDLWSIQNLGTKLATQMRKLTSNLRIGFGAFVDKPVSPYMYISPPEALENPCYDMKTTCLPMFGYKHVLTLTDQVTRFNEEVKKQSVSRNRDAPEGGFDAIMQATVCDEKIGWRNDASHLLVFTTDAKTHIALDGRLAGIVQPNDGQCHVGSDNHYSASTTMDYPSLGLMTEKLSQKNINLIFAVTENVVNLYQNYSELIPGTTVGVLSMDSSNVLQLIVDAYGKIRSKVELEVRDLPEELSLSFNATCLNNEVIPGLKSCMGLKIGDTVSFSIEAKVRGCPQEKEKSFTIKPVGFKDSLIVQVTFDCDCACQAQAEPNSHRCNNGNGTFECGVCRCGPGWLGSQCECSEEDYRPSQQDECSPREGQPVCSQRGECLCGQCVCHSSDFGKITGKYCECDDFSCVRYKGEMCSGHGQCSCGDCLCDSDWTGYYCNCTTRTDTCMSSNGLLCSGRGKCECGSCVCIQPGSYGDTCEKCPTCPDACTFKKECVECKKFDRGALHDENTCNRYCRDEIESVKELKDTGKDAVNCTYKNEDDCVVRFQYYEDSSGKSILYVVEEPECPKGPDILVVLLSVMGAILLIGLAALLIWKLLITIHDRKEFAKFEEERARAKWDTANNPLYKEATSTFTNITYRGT
T1 sequence (P06756 31-889 limits assumed): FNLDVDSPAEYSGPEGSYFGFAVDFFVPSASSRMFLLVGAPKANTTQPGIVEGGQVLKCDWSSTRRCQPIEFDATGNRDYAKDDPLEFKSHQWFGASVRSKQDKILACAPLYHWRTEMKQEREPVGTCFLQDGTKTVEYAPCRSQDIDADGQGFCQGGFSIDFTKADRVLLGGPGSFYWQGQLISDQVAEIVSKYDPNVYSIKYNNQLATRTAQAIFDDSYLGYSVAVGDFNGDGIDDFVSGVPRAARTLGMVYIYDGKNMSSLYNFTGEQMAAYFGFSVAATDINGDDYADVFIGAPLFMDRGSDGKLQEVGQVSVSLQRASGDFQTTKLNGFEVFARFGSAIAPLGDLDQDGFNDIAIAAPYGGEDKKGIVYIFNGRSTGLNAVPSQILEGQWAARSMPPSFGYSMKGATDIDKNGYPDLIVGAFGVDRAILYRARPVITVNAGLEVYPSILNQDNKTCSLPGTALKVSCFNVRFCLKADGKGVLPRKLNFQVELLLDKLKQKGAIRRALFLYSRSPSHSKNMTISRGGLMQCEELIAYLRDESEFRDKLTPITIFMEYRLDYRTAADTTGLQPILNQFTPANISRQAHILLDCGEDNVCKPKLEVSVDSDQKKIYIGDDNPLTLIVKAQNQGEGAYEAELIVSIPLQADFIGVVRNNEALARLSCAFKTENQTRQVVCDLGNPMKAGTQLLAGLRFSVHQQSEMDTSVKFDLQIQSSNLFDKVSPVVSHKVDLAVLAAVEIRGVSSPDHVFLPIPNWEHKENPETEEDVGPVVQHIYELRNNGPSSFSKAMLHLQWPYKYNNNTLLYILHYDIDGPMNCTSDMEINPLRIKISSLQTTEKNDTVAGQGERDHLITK
T1 sequence (P06756 891-1048 partner limits assumed): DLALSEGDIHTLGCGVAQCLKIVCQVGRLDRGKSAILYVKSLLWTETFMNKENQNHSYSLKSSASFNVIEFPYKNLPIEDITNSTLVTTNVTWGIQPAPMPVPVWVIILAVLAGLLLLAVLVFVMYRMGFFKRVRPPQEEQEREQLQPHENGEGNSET
T1 sequence (P05106 27-788): as the sequence (P05106 27-788) above

As to “6-[(1E)-3-[(4,5-dihydro-1H-imidazol-2-yl)amino]-1-propenyl]-(αS)-3,4-dihydro-4-oxo-α-[[[(E)-2-phenylethenyl]sulfonyl]amino]-2-quinazolinepropanoic Acid [Compound 7]”, the IC50 in test [1] was found to be 7 nM; in test [2], 330 nM.
Taken in the same sequence, the figures for “6-[(1E)-4-[[(aminoiminomethyl)amino]oxy]-1-butenyl]-(αS)-3,4-dihydro-4-oxo-α-[[(2,3,4,5,6-pentamethylphenyl)sulfonyl]amino]-2-quinazolinepropanoic Acid [Compound 16]” were 268 nM and 36 nM.
In the same order, the values of `Cc1c(C)c(C)c(S(=O)(=O)N[C@@H](Cc2nc3ccc(/C=C/CNC4=NCCN4)cc3c(=O)[nH]2)C(=O)O)c(C)c1C` [Compound 1, 6-[(1E)-3-[(4,5-dihydro-1H-imidazol-2-yl)amino]-1-propenyl]-(αS)-3,4-dihydro-4-oxo-α-[[(2,3,4,5,6-pentamethylphenyl)sulfonyl]amino]-2-quinazolinepropanoic Acid] are 0.75 nM and 24 nM.
In the case of `O=C(N[C@@H](Cc1nc2ccc(/C=C/CNC3=NCCN3)cc2c(=O)[nH]1)C(=O)O)OCc1ccccc1` [Compound 2, 6-[(1E)-3-[(4,5-dihydro-1H-imidazol-2-yl)amino]-1-propenyl]-(αS)-3,4-dihydro-4-oxo-α-[[(phenylmethoxy)carbonyl]amino]-2-quinazolinepropanoic Acid], the IC50 in test [1] is 55 nM; in test [2] it was 560 nM.
Regarding `Cc1cc(C)c(S(=O)(=O)N[C@@H](Cc2nc3ccc(/C=C/CNC4=NCCN4)cc3c(=O)[nH]2)C(=O)O)c(C)c1` [Compound 3, 6-[(1E)-3-[(4,5-dihydro-1H-imidazol-2-yl)amino]-1-propenyl]-(αS)-3,4-dihydro-4-oxo-a-[[(2,4,6-trimethylphenyl)sulfonyl]amino]-2-quinazolinepropanoic Acid], the IC50 in test [1] came to 3.2 nM; in test [2], 78 nM.
On to `O=C(O)[C@H](Cc1nc2ccc(/C=C/CNC3=NCCN3)cc2c(=O)[nH]1)NS(=O)(=O)c1cccc2cccnc12` [Compound 4, 6-[(1E)-3-[(4,5-dihydro-1H-imidazol-2-yl)amino]-1-propenyl]-(αS)-3,4-dihydro-4-oxo-α-[(8-quinolinylsulfonyl)amino]-2-quinazolinepropanoic Acid], for which the IC50 came out at 14 nM in test [1] and 320 nM in test [2].
As to `O=C(O)[C@H](Cc1nc2ccc(/C=C/CNC3=NCCN3)cc2c(=O)[nH]1)NS(=O)(=O)CCc1cccc2ccccc12` [Compound 5, 6-[(1E)-3-[(4,5-dihydro-1H-imidazol-2-yl)amino]-1-propenyl]-(αS)-3,4-dihydro-α-[[[2-(1-naphthalenyl)ethyl]sulfonyl]amino]-4-oxo-2-quinazolinepropanoic Acid], the IC50 in test [1] came out at 8.6 nM; in test [2], 670 nM.
Consider `O=C(O)[C@H](Cc1nc2ccc(/C=C/CNC3=NCCN3)cc2c(=O)[nH]1)NS(=O)(=O)c1ccc(-c2ccccn2)s1` [Compound 6, 6-[(1E)-3-[(4,5-dihydro-1H-imidazol-2-yl)amino]-1-propenyl]-(αS)-3,4-dihydro-4-oxo-α-[[[5-(2-pyridinyl)-2-thienyl]sulfonyl]amino]-2-quinazolinepropanoic Acid], for which the IC50 stood at 5.3 nM in test [1] and 41 nM in test [2].
For `O=C(N[C@@H](Cc1nc2ccc(/C=C/CCNC3=NCCN3)cc2c(=O)[nH]1)C(=O)O)OCc1ccccc1` [Compound 8, 6-[(1E)-4-[(4,5-dihydro-1H-imidazol-2-yl)amino]-1-butenyl]-(αS)-3,4-dihydro-4-oxo-α-[[(phenylmethoxy)carbonyl]amino]-2-quinazolinepropanoic Acid], the IC50 in test [1] stood at 210 nM; in test [2] it was 580 nM.
For `O=C(N[C@@H](Cc1nc2ccc(-c3cccc(NC4=NCCN4)c3)cc2c(=O)[nH]1)C(=O)O)OCc1ccccc1` [Compound 9, 6-[3-[(4,5-dihydro-1H-imidazol-2-yl)amino]phenyl]-(αS)-3,4-dihydro-4-oxo-α-[[(phenylmethoxy)carbonyl]amino]-2-quinazolinepropanoic Acid], the IC50 was over 5000 nM in test [1] and 88 nM in test [2].
Consider `Cc1c(C)c(C)c(S(=O)(=O)N[C@@H](Cc2nc3ccc(/C=C/CNc4ccccn4)cc3c(=O)[nH]2)C(=O)O)c(C)c1C` [Compound 10, (αS)-3,4-dihydro-4-oxo-α-[[(2,3,4,5,6-pentamethylphenyl)sulfonyl]amino]-6-[(1E)-3-(2-pyridinylamino)-1-propenyl]-2-quinazolinepropanoic Acid], for which the figures for the IC50 in test [1] and in test [2] were 6.1 nM and 640 nM, respectively.
Taken in the same sequence, the figures for `Cc1c(C)c(C)c(S(=O)(=O)N[C@@H](Cc2nc3ccc(CCCNc4ccccn4)cc3c(=O)[nH]2)C(=O)O)c(C)c1C` [Compound 11, (αS)-3,4-dihydro-4-oxo-α-[[(2,3,4,5,6-pentamethylphenyl)sulfonyl]amino]-6-[3-(2-pyridinylamino)propyl]-2-quinazolinepropanoic Acid] were 9.6 nM and 640 nM.
For the molecule `O=C(Nc1ccccc1)N[C@@H](Cc1nc2ccc(/C=C/CNc3ccccn3)cc2c(=O)[nH]1)C(=O)O` [Compound 12, (αS)-3,4-dihydro-4-oxo-α-[[(phenylamino)carbonyl]amino]-6-[(E)-3-(2-pyridinylamino)-1-propenyl]-2-quinazolinepropanoic Acid], the results for the IC50 in test [1] and in test [2] were over 500 nM and 18000 nM, respectively.
In the case of `Cc1c(C)c(C)c(S(=O)(=O)N[C@@H](Cc2nc3ccc(/C=C/CNC(=O)Nc4ccccc4)cc3c(=O)[nH]2)C(=O)O)c(C)c1C` [Compound 13, (αS)-3,4-dihydro-4-oxo-α-[[(2,3,4,5,6-pentamethylphenyl)sulfonyl]amino]-6-[(1E)-3-[[(phenylamino)carbonyl]amino]-1-propenyl]-2-quinazolinepropanoic Acid], the IC50 worked out at 140 nM in test [1] and 1700 nM in test [2].
Turning to `Cc1c(C)c(C)c(S(=O)(=O)N[C@H](CC(=O)O)c2nc3ccc(/C=C/CNc4ccccn4)cc3c(=O)[nH]2)c(C)c1C` [Compound 14, (βR)-3,4-dihydro-4-oxo-β-[[(2,3,4,5,6-pentamethylphenyl)sulfonyl]amino]-6-[(1E)-3-(2-pyridinylamino)-1-propenyl]-2-quinazolinepropanoic Acid], the IC50 amounted to 25 nM in test [1] and 1800 nM in test [2].
Consider `CC(C)(C)c1ccc(S(=O)(=O)N[C@@H](Cc2nc3ccc(/C=C/CNc4ccccn4)cc3c(=O)[nH]2)C(=O)O)cc1` [Compound 23, α-[[[4-(1,1-dimethylethyl)phenyl]sulfonyl]amino]-(αS)-3,4-dihydro-4-oxo-6-[(1E)-3-(2-pyridinylamino)-1-propenyl]-2-quinazolinepropanoic acid], for which, in test [2], the IC50 came to 6400 nM.
On the same count and under the same terms, the same measure for `Cc1c(C)c(C)c(S(=O)(=O)N[C@@H](Cc2nc3ccc(/C=C/CNC(=O)NCCc4ccccc4)cc3c(=O)[nH]2)C(=O)O)c(C)c1C` [Compound 80, (αS)-3,4-dihydro-4-oxo-α-[[(2,3,4,5,6-pentamethylphenyl)sulfonyl]amino]-6-[(1E)-3-[[[(2-phenylethyl)amino]carbonyl]amino]-1-propenyl]-2-quinazolinepropanoic acid]: 2700 nM.
